The values below come from patent US20240082269A1, “METHODS AND PRODUCTS INCLUDING SPECIFIC CANNABINOIDS” (priority 2022, published 2024).

SMILES strings stand for the structures.

A short description of this test: Four Hempson Oil studies taken together (safety, overall THCV effect). In kind it is in vivo, human. To be noted: daily use of 8 mg doses of THCV over 60-180 days. An excerpt: The following pre-clinical and clinical research has shown that small daily oral amounts of Hempson Oil®—a hemp-extract high in cannabidiol (CBD), tetrahydrocannabivarin (THCV), and cannabidivarin (CBDV)—have consistent effects of weight loss, reduction in abdominal girth, blood sugar (HgbA1c) and blood lipid ratios. These comparative examples are shown merely for the effect the active ingredients may have upon metabolic disorders and weight loss.
The Hempson Oil Studies: from 2019 until April 2021, several independent high quality human trials were completed using an oral Hempson® oil in a micellized tincture or non-micellized oil in gel caps. All of the studies were NIH-supported. All studies were double-blind, placebo-controlled, multisite, and randomized effectiveness studies of a hemp extract, known as Hempson® oil that is high in CBD, THCV, and CBDV. The studies used either type II diabetics, obese or healthy adults. The studies done with micellized oil tincture used lower doses with micellized Hempson® oil because of increased the absorption and bioavailability of the cannabinoids.
In each study, subjects were randomly assigned to either the Hempson Oil® group (100 subjects) or the control group (50 subjects). Each subject signed a study consent form. Subjects were instructed to orally ingest this study product once daily. All subjects were instructed not to change their eating, drinking, or exercise habits for the duration of this study.
All of the study results reported below were statistically significant (p<0.05) compared to placebo results.

Regarding `CCCc1cc(O)c2c(c1)OC(C)(C)[C@@H]1CCC(C)=C[C@@H]21` [THCV, tetrahydrocannabivarin], the “A1C blood levels (diabetic measure)” value was “decrease in A1C blood levels”, the Abdominal girth result is reported as “decrease of abdominal girth” and the Weight entry is “statistically significant weight loss”.
